Common to all, as to type: functional, cell-based
The subject of test [1] is A549. Description: Compound was tested for cytotoxicity on A549 lung adenocarcinoma cell line using a proliferation assay (MTT reduction). The settings on record: Homo sapiens. On the technique in general: Tetrazolium assays rely on reduction of a dye to a coloured formazan, in cell work by metabolically active cells.
The subject of the next test is HT-29. Kind of test: Compound was tested for cytotoxicity on HT-29 colon cancer cell line using a proliferation assay (MTT reduction). Conditions: Homo sapiens.
In the next test the test system is L1210. Description: Compound was tested for cytotoxicity on L1210 leukemia cell line using a proliferation assay (MTT reduction). Conditions: Mus musculus.
The test system of test [2] is A549. Description: Compound was tested for cytotoxicity on A549 lung adenocarcinoma cell line using a proliferation assay (MTT reduction). Conditions: Homo sapiens.

Where only a bound is given, the exact number is not on record here.

One may read the IC50 as the point on the concentration scale where inhibition reaches its midpoint. High values mean lower potency, low ones higher potency. As for `COc1cccc2c1C(=O)c1c(O)c3c(c(O)c1C2=O)C[C@@](O)(C(=O)CO)C[C@@H]3O[C@H]1C[C@H](N)[C@H](O)[C@H](C)O1` [DOXORUBICIN], the half-inhibitory concentration (IC50) was found to be 0.1 µM in the test with A549 [1], 0.12 µM in the test with HT-29 and 0.04 µM in the test on L1210.

For the compound `COC1=CC2C(C3C=CC2(OC)C(=O)[C@]32CO2)[C@@]2(CO2)C1=O` (stereo partly specified), the IC50 in the test with A549 [1] was 1.2 µM; with HT-29, 3.6 µM; in the test with L1210, 1 µM.

In the case of `O=C1C2C=CC(C3C2C2C/C(=N\Cc4ccccc4)[C@]3(O)CN2Cc2ccccc2)[C@@]12CO2` (stereo partly specified), the IC50 in the test on A549 [1] is > 28 µM; in the test with HT-29 it was 27 µM; in the test with L1210 it was > 28 µM.

With `O=C1C2C=CC(C3C2C=CC(=O)[C@]32CO2)[C@@]12CO2` (stereo partly specified), the IC50 in the test on A549 [2] was 0.75 µM; with HT-29, 0.3 µM; in the test on L1210, 0.18 µM.

For `O[C@@H]1C=CC2C3C=CC(C2[C@@]12CO2)[C@@]1(CO1)[C@@H]3O` (stereo partly specified), the IC50 in the test with A549 [1] was found to be 31.5 µM; with HT-29, 17 µM; in the test with L1210 it was 22.5 µM.

In the case of `COC1=CC2C3C=CC(C2[C@@]2(CO2)C1=O)[C@@]1(CO1)C3=O` (stereo partly specified), the IC50 is 17.5 µM in the test with A549 [1], 5.8 µM in the test on HT-29 and > 36 µM in the test on L1210.

As to `O[C@@H]1CCC2C3C=CC(C2[C@@]12CO2)[C@@]1(CO1)[C@@H]3O` (stereo partly specified), the figures for the IC50 in the test on A549 [1], with HT-29 and in the test on L1210 were 18 µM, 6 µM and 19.5 µM, respectively.

Values taken from ChEMBL document CHEMBL1153259, “Spiroepoxycyclohexadienone dimers: cytotoxic bisalkylating agents” (Bioorg Med Chem Lett, 1993).
